Source: US20240228459A1 (Boundless Bio, Inc., priority 2022, published 2024)

Tests used:
PLK1 = PLK1 (Homo sapiens, UniProt P53350); assay: PLK1 activity (known assay); type: biochemical
Protocol: (§1) The Wee1 pCDK1 and PLK1 activities were determined using known assays.

Wee1 = Wee1 (Homo sapiens, UniProt P30291); assay: Wee1 pCDK1 activity (known assay); type: cell-based
Protocol: as §1

PLK1, sequence (P53350 whole entry, species assumed): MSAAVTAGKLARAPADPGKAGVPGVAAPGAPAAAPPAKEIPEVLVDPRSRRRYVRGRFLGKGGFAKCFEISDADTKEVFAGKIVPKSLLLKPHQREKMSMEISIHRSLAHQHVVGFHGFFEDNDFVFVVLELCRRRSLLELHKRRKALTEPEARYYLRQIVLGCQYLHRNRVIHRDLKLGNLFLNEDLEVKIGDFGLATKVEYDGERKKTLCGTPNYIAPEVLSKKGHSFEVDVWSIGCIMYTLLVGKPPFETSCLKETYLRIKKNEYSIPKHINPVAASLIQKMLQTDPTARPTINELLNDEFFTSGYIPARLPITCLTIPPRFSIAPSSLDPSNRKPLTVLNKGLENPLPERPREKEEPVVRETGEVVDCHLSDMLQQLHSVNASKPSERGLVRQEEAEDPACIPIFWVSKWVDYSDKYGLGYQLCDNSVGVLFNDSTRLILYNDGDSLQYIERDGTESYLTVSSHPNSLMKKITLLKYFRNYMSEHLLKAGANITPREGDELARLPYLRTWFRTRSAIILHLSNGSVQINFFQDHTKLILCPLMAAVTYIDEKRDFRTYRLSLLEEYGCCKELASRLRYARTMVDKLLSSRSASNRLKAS
Wee1, sequence (P30291 whole entry, species assumed): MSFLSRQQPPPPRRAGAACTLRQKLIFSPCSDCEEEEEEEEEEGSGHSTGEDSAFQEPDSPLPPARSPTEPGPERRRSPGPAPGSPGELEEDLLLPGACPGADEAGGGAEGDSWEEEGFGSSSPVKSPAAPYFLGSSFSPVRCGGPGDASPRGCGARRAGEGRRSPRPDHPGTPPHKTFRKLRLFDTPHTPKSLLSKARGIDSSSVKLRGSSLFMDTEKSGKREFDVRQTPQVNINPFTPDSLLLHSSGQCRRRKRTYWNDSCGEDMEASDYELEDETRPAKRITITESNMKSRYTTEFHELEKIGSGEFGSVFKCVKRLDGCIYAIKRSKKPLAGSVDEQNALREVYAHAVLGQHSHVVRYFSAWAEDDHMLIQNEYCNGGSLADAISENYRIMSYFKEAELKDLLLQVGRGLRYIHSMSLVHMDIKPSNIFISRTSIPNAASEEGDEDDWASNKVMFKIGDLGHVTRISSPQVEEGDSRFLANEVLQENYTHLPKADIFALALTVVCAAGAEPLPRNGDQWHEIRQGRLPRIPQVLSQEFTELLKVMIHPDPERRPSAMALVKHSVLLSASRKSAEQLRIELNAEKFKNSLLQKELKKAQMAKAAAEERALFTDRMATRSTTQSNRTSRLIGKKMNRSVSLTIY

| SMILES | IC50 (PLK1) [nM] | IC50 (Wee1) [nM] |
| --- | --- | --- |
| CN1CC2CCC(C1)N2c1ccc(Nc2ncc(C#N)c(Nc3ccc4c(n3)C(C)(O)CC4)n2)cc1 (stereo not drawn) [Example 57, 4-[(7-hydroxy-7-methyl-5,6-dihydrocyclopenta[b]pyridin-2-yl)amino]-2-[4-(3-methyl-3,8-diazabicyclo[3.2.1]octan-8-yl)anilino]pyrimidine-5-carbonitrile] | > 1000 | 250 to 500 |
| CN1CCc2cc(Nc3ncc(C#N)c(Nc4ccc5c(n4)C(C)(O)CC5)n3)ccc2C1(C)C (stereo not drawn) [Example 61, 4-[(7-hydroxy-7-methyl-5,6-dihydrocyclopenta[b]pyridin-2-yl)amino]-2-[(1,1,2-trimethyl-3,4-dihydroisoquinolin-6-yl)amino]pyrimidine-5-carbonitrile] | > 1000 | 250 to 500 |
| Cc1cc(Nc2ncc(C#N)c(Nc3cccc(N4CCCC4=O)n3)n2)ccc1C1CCN(C)CC1 [Example 62, 2-[3-methyl-4-(1-methyl-4-piperidyl)anilino]-4-[[6-(2-oxopyrrolidin-1-yl)-2-pyridyl]amino]pyrimidine-5-carbonitrile] | 250 to 500 | ≤ 100 |
| COCc1cc(Nc2ncc(C#N)c(Nc3cccc(N4CCCC4=O)n3)n2)ccc1C1CCN(C)CC1 [Example 63, 2-[3-(methoxymethyl)-4-(1-methyl-4-piperidyl)anilino]-4-[[6-(2-oxopyrrolidin-1-yl)-2-pyridyl]amino]pyrimidine-5-carbonitrile] | > 1000 | 500 to 1000 |
| C[C@@H]1CN(C)CCN1c1ccc(Nc2ncc(C#N)c(Nc3cccc(N4CCCC4=O)n3)n2)cc1 [Example 64, 4-[[6-(2-oxopyrrolidin-1-yl)-2-pyridyl]amino]-2-[4-[(2R)-2,4-dimethylpiperazin-1-yl]anilino]pyrimidine-5-carbonitrile] | > 1000 | 250 to 500 |
| C[C@H]1CN(C)CCN1c1ccc(Nc2ncc(C#N)c(Nc3cccc(N4CCCC4=O)n3)n2)cc1 [Example 65, 4-[[6-(2-oxopyrrolidin-1-yl)-2-pyridyl]amino]-2-[4-[(2S)-2,4-dimethylpiperazin-1-yl]anilino]pyrimidine-5-carbonitrile] | > 1000 | 100 to 250 |
| COCc1cc(Nc2ncc(C#N)c(Nc3cccc(N4CCCC4=O)n3)n2)ccc1N1CCN(C)CC1 [Example 66, 2-[3-(methoxymethyl)-4-(4-methylpiperazin-1-yl)anilino]-4-[[6-(2-oxopyrrolidin-1-yl)-2-pyridyl]amino]pyrimidine-5-carbonitrile] | > 1000 | 250 to 500 |
| CN1CCC(c2ccc(Nc3ncc(C#N)c(Nc4cccc(N5CCCC5=O)n4)n3)cc2)CC1=O (stereo not drawn) [Example 67, 2-[4-(1-methyl-2-oxo-4-piperidyl)anilino]-4-[[6-(2-oxopyrrolidin-1-yl)-2-pyridyl]amino]pyrimidine-5-carbonitrile] | > 1000 | 500 to 1000 |
| CCC1CN(C)CCN1c1ccc(Nc2ncc(C#N)c(Nc3cccc(N4CCCC4=O)n3)n2)cc1 (stereo not drawn) [Example 68, 2-[4-(2-ethyl-4-methyl-piperazin-1-yl)anilino]-4-[[6-(2-oxopyrrolidin-1-yl)-2-pyridyl]amino]pyrimidine-5-carbonitrile] | > 1000 | 100 to 250 |
| COCC1CN(C)CCN1c1ccc(Nc2ncc(C#N)c(Nc3cccc(N4CCCC4=O)n3)n2)cc1 (stereo not drawn) [Example 69, 2-[4-[2-(methoxymethyl)-4-methyl-piperazin-1-yl]anilino]-4-[[6-(2-oxopyrrolidin-1-yl)-2-pyridyl]amino]pyrimidine-5-carbonitrile] | > 1000 | 250 to 500 |
| CN1CC2CC1CN2c1ccc(Nc2ncc(C#N)c(Nc3cccc(N4CCCC4=O)n3)n2)cc1 (stereo not drawn) [Example 70, 2-[4-(5-methyl-2,5-diazabicyclo[2.2.1]heptan-2-yl)anilino]-4-[[6-(2-oxopyrrolidin-1-yl)-2-pyridyl]amino]pyrimidine-5-carbonitrile] | ≤ 100 | 250 to 500 |
| CN1CCN(c2ccc(Nc3ncc(C#N)c(Nc4cccc(N5CCCC5=O)n4)n3)cc2)CC1=O [Example 71, 2-[4-(4-methyl-3-oxo-piperazin-1-yl)anilino]-4-[[6-(2-oxopyrrolidin-1-yl)-2-pyridyl]amino]pyrimidine-5-carbonitrile] | 250 to 500 | 500 to 1000 |
| CN1CCc2cc(Nc3ncc(C#N)c(Nc4cccc(N5CCCC5=O)n4)n3)ccc2C1 [Example 72, 2-[(2-methyl-3,4-dihydro-1H-isoquinolin-6-yl)amino]-4-[[6-(2-oxopyrrolidin-1-yl)-2-pyridyl]amino]pyrimidine-5-carbonitrile] | > 1000 | ≤ 100 |
| Cc1cc(Nc2ncc(C#N)c(Nc3cccc(N4CCCC4=O)n3)n2)cc2c1CN(C)CC2 [Example 73, 2-[(2,8-dimethyl-3,4-dihydro-1H-isoquinolin-6-yl)amino]-4-[[6-(2-oxopyrrolidin-1-yl)-2-pyridyl]amino]pyrimidine-5-carbonitrile] | > 1000 | ≤ 100 |
| CN1CCc2ccc(Nc3ncc(C#N)c(Nc4cccc(N5CCCC5=O)n4)n3)cc2C1 [Example 74, 2-[(2-methyl-3,4-dihydro-1H-isoquinolin-7-yl)amino]-4-[[6-(2-oxopyrrolidin-1-yl)-2-pyridyl]amino]pyrimidine-5-carbonitrile] | > 1000 | 100 to 250 |
| Cc1cc(Nc2ncc(C#N)c(Nc3cccc(N4CCCC4=O)n3)n2)cc2c1CCN(C)C2 [Example 75, 2-[(2,5-dimethyl-3,4-dihydro-1H-isoquinolin-7-yl)amino]-4-[[6-(2-oxopyrrolidin-1-yl)-2-pyridyl]amino]pyrimidine-5-carbonitrile] | 100 to 250 | ≤ 100 |
| CN1CCc2cc(Nc3ncc(C#N)c(Nc4cccc(N5CCCC5=O)n4)n3)cc(Cl)c2C1 [Example 76, 2-[(8-chloro-2-methyl-3,4-dihydro-1H-isoquinolin-6-yl)amino]-4-[[6-(2-oxopyrrolidin-1-yl)-2-pyridyl]amino]pyrimidine-5-carbonitrile] | > 1000 | 500 to 1000 |
| CN1CCC(O)(c2ccc(Nc3ncc(C#N)c(Nc4cccc(N5CCCC5=O)n4)n3)cc2)CC1 [Example 78, 2-[4-(4-hydroxy-1-methyl-4-piperidyl)anilino]-4-[[6-(2-oxopyrrolidin-1-yl)-2-pyridyl]amino]pyrimidine-5-carbonitrile] | > 1000 | > 1000 |
